# Laboratory results taken from US9493451B2 (Bionomics Limited, priority 2011, dated 2016).
# Biological target: T1, Kv1.3 (Homo sapiens, UniProt P22001)
# T1 construct: expressed in transfected cells; host or cells: CHO (Kv1.3/CHO)
# Test: Electrophysiology: planar patch-clamp of Kv1.3 currents, IC50 from steady state current amplitude
# Assay type: cell-based
# Conditions: Kv1.3 electrophysiology, results according to Method D1, read-out: IC50 (Kv1.3 ephys steady state)
# Protocol: The inhibition data shown for the compounds of the list below was calculated using the steady state current amplitude at the end of the depolarising pulse in patch clamp evaluations (as described in the Biology Protocols: 1. Electrophysiology).
# Kv1.x currents were measured in Kv1.3/CHO or Kv1.5/CHO cells using a planar electrode version (Nanion Technologies GMBH) of the patch-clamp technique. Whole-cell Kv1.x current transients were evoked by 500 ms depolarising voltage pulses to +40 mV from a holding potential of −80 mV applied at 10 s intervals for Kv1.5 and at 30 s intervals for Kv1.3 to allow adequate time for recovery from inactivation. Cells were continuously bathed in a buffered saline solution containing (mM): 160 NaCl, 4.5 KCl, 2 CaCl2, 1 MgCl2, 5 glucose, 10 HEPES, pH 7.4, 290-310 mOsm·Kg^−1. The internal (pipette) solution contained (mM): 10 NaCl, 70 KF, 75 KCl, 2 MgCl2, 10 HEPES, 10 EGTA, pH 7.2, 290-310 mOsm·Kg^−1. Series resistance compensation (60-80%) was applied to cells in which the peak current amplitude exceeded 2 nA.
# Compound Preparation and Potency Assessment
# Compounds were initially dissolved in DMSO to 10 mM. After further dilution in DMSO, compounds were finally diluted in bath solution 1/200 (to give a final DMSO concentration of 0.5%) and applied directly to the recording chamber. Compounds were added at increasing concentrations allowing ample time for steady state block to be achieved between each concentration. Each compound was tested at 5-6 different concentrations on 2-3 cells. Compound IC50 values were determined by fitting the average normalised reduction of either the current integral or the steady state current amplitude at the end of the 500 ms depolarising pulse obtained at each compound concentration to the Hill equation. The IC50 data reported herein is based on the steady state calculation.
# T1 sequence (P22001 whole entry): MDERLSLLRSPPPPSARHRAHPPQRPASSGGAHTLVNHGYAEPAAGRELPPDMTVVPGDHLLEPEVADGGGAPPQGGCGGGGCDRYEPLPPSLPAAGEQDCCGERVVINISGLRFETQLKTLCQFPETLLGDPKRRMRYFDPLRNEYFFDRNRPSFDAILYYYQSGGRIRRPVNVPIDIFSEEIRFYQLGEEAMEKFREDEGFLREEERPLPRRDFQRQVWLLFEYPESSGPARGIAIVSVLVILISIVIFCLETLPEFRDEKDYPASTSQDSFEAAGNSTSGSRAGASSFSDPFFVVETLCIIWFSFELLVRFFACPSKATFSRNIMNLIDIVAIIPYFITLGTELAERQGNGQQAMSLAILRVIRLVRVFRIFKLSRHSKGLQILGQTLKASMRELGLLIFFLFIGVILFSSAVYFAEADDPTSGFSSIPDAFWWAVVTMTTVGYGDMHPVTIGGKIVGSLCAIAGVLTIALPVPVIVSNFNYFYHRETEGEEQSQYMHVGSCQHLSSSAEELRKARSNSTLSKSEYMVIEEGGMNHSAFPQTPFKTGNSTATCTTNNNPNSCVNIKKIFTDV
row,Structure (SMILES),IC50 [µM]
1,"CN1C2CCC1CC(N(C(=O)CS(=O)(=O)c1ccccc1)C(c1ccc(Cl)cc1)C1CC1)C2 (racemic) [Example 93, N-[(4-chlorophenyl)(cyclopropyl)methyl]-N-(8-methyl-8-azabicyclo[3.2.1]oct-3-yl)-2-(phenylsulfonyl)acetamide]",0.05 to 0.2
2,"CC(CC(=O)N(Cc1ccc(C(F)(F)F)nc1)C(C)c1ccc2c(c1)CCC2)c1ccc(F)cc1 (single isomer, unassigned) [Compound 39, N-[1-(2,3-dihydro-1H-inden-5-yl)ethyl]-3-(4-fluorophenyl)-N-{[6-(trifluoromethyl)pyridin-3-yl]methyl}butanamide]",0.05 to 0.2
3,"CC(CC(=O)N(Cc1ccc(C(F)(F)F)nc1)C(C)c1ccc2c(c1)CCC2)c1ccc(F)cc1 (single isomer, unassigned) [Compound 40, N-[1-(2,3-dihydro-1H-inden-5-yl)ethyl]-3-(4-fluorophenyl)-N-{[6-(trifluoromethyl)pyridin-3-yl]methyl}butanamide]",0.05 to 0.2
4,"C[C@H](CC(=O)N(Cc1ccccn1)C(c1ccc(Cl)cc1)C1CC1)c1ccc(F)cc1 (single isomer, unassigned) [Example 5]",< 0.05
5,"C[C@@H](CC(=O)N(Cc1ccccn1)C(c1ccc(Cl)cc1)C1CC1)c1ccc(F)cc1 (single isomer, unassigned) [Example 8]",< 0.05
6,"CC(CC(=O)N(Cc1ccccn1)C(c1ccc2c(c1)S(=O)(=O)C(C)(C)O2)C1CC1)c1ccc(F)cc1 (single isomer, unassigned) [Example 74, N-[cyclopropyl(2,2-dimethyl-3,3-dioxido-1,3-benzoxathiol-5-yl)methyl]-3-(4-fluorophenyl)-N-(pyridin-2-ylmethyl)butanamide]",< 0.05
7,"C[C@@H](CC(=O)N(Cc1ccccn1)[C@H](c1ccc(Cl)cc1)C1CC1)S(=O)(=O)c1ccc(F)cc1 (single isomer, unassigned) [Example 76, N-[(4-chlorophenyl)(cyclopropyl)methyl]-3-[(4-fluorophenyl)sulfonyl]-N-(pyridin-2-ylmethyl)butanamide]",< 0.05
8,"CC(C)[C@@H](c1ccc(F)cc1)N(CCN1CCC(F)CC1)C(=O)C1(S(=O)(=O)c2ccc(F)cc2)CC1 (single isomer, unassigned) [Example 94]",0.05 to 0.2
9,"O=C(CC1(c2ccc(F)cc2)CC1)N(Cc1ccccn1)[C@@H](c1ccc(Cl)cc1)C1CC1 (single isomer, unassigned) [Example 95, N-[(4-chlorophenyl)(cyclopropyl)methyl]-2-[1-(4-fluorophenyl)cyclopropyl]-N-(pyridin-2-ylmethyl)acetamide]",< 0.05
10,"C[C@@H](CC(=O)N(Cc1ccccn1)C1(c2cccc(Br)c2)CC1)c1ccc(F)cc1 (single isomer, unassigned) [Example 96]",0.05 to 0.2
11,"CCS(=O)(=O)c1cccc([C@@H](C2CC2)N(Cc2ccc(C(F)(F)F)nc2)C(=O)[C@@H]2C[C@H]2c2ccc(F)cc2)c1 (single isomer, unassigned) [Example 99]",< 0.05
12,"CC(C(=O)N(Cc1ccccn1)C(c1ccc(Cl)cc1)C1CC1)S(=O)(=O)c1ccc(F)cc1 (single isomer, unassigned) [Example 296]",< 0.05
13,"CC(C(=O)N(Cc1ccccn1)C(c1ccc(Cl)cc1)C1CC1)S(=O)(=O)c1ccc(F)cc1 (single isomer, unassigned) [Example 297]",0.2 to 1
14,"O=C(C1C[C@H]1c1ccc(F)cc1)N(Cc1ccccn1)[C@@H](c1ccc(Cl)cc1)C1CC1 (stereo in doubt) [Example 13, N-[(4-chlorophenyl)(cyclopropyl)methyl]-2-(4-fluorophenyl)-N-(pyridin-2-ylmethyl)cyclopropanecarboxamide]",0.05 to 0.2
15,"O=C([C@H]1C[C@@H]1c1ccc(F)cc1)N(Cc1ccccn1)[C@@H](c1ccc(Cl)cc1)C1CC1 (stereo in doubt) [Example 14, N-[(4-chlorophenyl)(cyclopropyl)methyl]-2-(4-fluorophenyl)-N-(pyridin-2-ylmethyl)cyclopropanecarboxamide]",< 0.05
16,"O=C(C1CC1c1ccc(F)cc1)N(Cc1ccccn1)C(c1ccc(Cl)cc1)C1CC1 (stereo not drawn) [Example 10, N-[(4-chlorophenyl)(cyclopropyl)methyl]-2-(4-fluorophenyl)-N-(pyridin-2-ylmethyl)cyclopropanecarboxamide]",0.05 to 0.2
17,"COc1ccccc1[C@H](C)N(Cc1ccccn1)C(=O)CCc1ccc(F)cc1 [Example 55, 3-(4-fluorophenyl)-N-[(1S)-1-(2-methoxyphenyl)ethyl]-N-(pyridin-2-ylmethyl)propanamide]",0.2 to 1

row,Structure (SMILES),IC50 [µM]
1,"COc1ccccc1[C@@H](C)N(Cc1ccccn1)C(=O)CCc1cccc(C(F)(F)F)c1 [Example 61, N-[(1R)-1-(2-methoxyphenyl)ethyl]-N-(pyridin-2-ylmethyl)-3-[3-(trifluoromethyl)phenyl]propanamide]",0.05 to 0.2
2,"CC(c1ccc2c(c1)[S+]([O-])C(C)(C)O2)N(Cc1ccccn1)C(=O)CCc1cccc(C(F)(F)F)c1 (stereo not drawn) [Example 63, N-[1-(2,2-dimethyl-3-oxido-1,3-benzoxathiol-5-yl)ethyl]-N-(pyridin-2-ylmethyl)-3-[3-(trifluoromethyl)phenyl]propanamide]",1 to 2
3,"CN1C2CCC1CC(N(C(=O)CS(=O)(=O)c1ccc(F)cc1)C(c1ccc(Cl)cc1)C1CC1)C2 (stereo not drawn) [Example 80, N-[(4-chlorophenyl)(cyclopropyl)methyl]-2-[(4-fluorophenyl)sulfonyl]-N-(8-methyl-8-azabicyclo[3.2.1]octan-3-yl)acetamide]",0.2 to 1
4,CCc1noc(C(C)N(Cc2ccccn2)C(=O)CC(C)c2ccc(F)cc2)n1 (stereo not drawn) [Example 87],0.2 to 1
5,"COc1ccc(CN(C(=O)CC(C)S(=O)(=O)c2ccc(F)cc2)C(c2ccc(OC(F)F)cc2)C2CC2)cn1 (stereo not drawn) [Example 88, N-{cyclopropyl[4-(difluoromethoxy)phenyl]methyl}-3-[(4-fluorophenyl)sulfonyl]-N-[(6-methoxypyridin-3-yl)methyl]butanamide]",0.05 to 0.2
6,"O=C(CC1(c2ccc(F)cc2)CC1)N(Cc1cccnn1)[C@@H](c1ccc(OC(F)F)cc1)C1CC1 [Example 89, N—{(R)-cyclopropyl[4-(difluoromethoxy)phenyl]methyl}-2-[1-(4-fluorophenyl)cyclopropyl]-N-(pyridazin-3-ylmethyl)acetamide]",< 0.05
7,"O=C(N(Cc1ccccn1)[C@@H](c1ccc(OC(F)F)cc1)C1CC1)C1(S(=O)(=O)c2ccc(F)cc2)CC1 [Example 91, N-{cyclopropyl[4-(difluoromethoxy)phenyl]methyl}-1-[(4-fluorophenyl)sulfonyl]-N-(pyridin-2-ylmethyl)cyclopropanecarboxamide]",0.2 to 1
8,"O=C(N(Cc1ccccn1)[C@H](c1ccc(OC(F)F)cc1)C1CC1)C1(S(=O)(=O)c2ccc(F)cc2)CC1 [Example 92, N-{cyclopropyl[4-(difluoromethoxy)phenyl]methyl}-1-[(4-fluorophenyl)sulfonyl]-N-(pyridin-2-ylmethyl)cyclopropanecarboxamide]",0.2 to 1
9,"O=C([C@@H]1C[C@H]1c1ccc(F)cc1)N(Cc1cccnn1)[C@@H](c1ccc(OC(F)F)cc1)C1CC1 [Example 97, (1R,2R)-2-(4-Fluoro-phenyl)-cyclopropanecarboxylic acid [(R)-cyclopropyl-(4-difluoromethoxy-phenyl)-methyl]-pyridazin-3-ylmethyl-amide]",< 0.05
10,"O=C([C@@H]1C[C@H]1c1ccc(F)cc1)N(Cc1cccnn1)[C@H](c1ccc(OC(F)F)cc1)C1CC1 [Example 98, (1R,2R)-2-(4-Fluoro-phenyl)-cyclopropanecarboxylic acid [(S)-cyclopropyl-(4-difluoromethoxy-phenyl)-methyl]-pyridazin-3-ylmethyl-amide]",0.05 to 0.2
11,"CCS(=O)(=O)c1cccc([C@H](C2CC2)N(Cc2ccc(C(F)(F)F)nc2)C(=O)[C@@H]2C[C@H]2c2ccc(F)cc2)c1 [Example 100, (1R, 2R)-2-(4-Fluoro-phenyl)-cyclopropanecarboxylic acid [(S)-cyclopropyl-(3-ethanesulfonyl-phenyl)-methyl]-(6-trifluoromethyl-pyridin-3-ylmethyl)-amide]",0.05 to 0.2
12,"CC(C)(c1ccccc1)N(Cc1ccccn1)C(=O)CS(=O)(=O)c1ccc(F)cc1 [Example 101, 2-(4-Fluorophenylsulfonyl)-N-(2-phenylpropan-2-yl)-N-(pyridine-2-ylmethyl)acetamide]",0.2 to 1
13,CC(C)C(c1ccc(OC(F)F)cc1)N(Cc1ccc(F)cn1)C(=O)C1CC1c1ccc(F)cc1 (stereo not drawn) [Example 110],< 0.05
14,CC(C)C(c1ccc(OC(F)F)cc1)N(Cc1ccc(F)cn1)C(=O)C1CC1c1ccc(F)cc1 (stereo not drawn) [Example 111],0.05 to 0.2
15,CC(C)C(c1ccc(OC(F)F)cc1)N(Cc1cccnn1)C(=O)C1CC1c1ccc(F)cc1 (stereo not drawn) [Example 113],0.2 to 1
16,CC(C)C(c1ccc(OC(F)F)cc1)N(Cc1cccnn1)C(=O)C1CC1c1ccc(F)cc1 (stereo not drawn) [Example 114],0.05 to 0.2
